# Test results as given in patent US6215002A, “Pyrrolopyrrolone derivatives as inhibitors of neutrophil elastase” (priority 1996, dated 2001).
# Counter-ions that a name gives are not always drawn.
# Target: T1, human neutrophil elastase (Homo sapiens, UniProt P08246)
# T1 sequence (P08246 30-267): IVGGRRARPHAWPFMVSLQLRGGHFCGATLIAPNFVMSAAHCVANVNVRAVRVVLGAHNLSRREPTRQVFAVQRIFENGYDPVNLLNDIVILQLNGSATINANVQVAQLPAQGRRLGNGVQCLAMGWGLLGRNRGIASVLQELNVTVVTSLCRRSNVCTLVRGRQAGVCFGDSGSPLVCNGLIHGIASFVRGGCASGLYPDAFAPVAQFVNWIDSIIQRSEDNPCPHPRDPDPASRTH
# Assay: In vitro assay of human neutrophil elastase (HNE)
# Type: biochemical
# Details: 118 nM purified human neutrophil elastase, pH 8.6, 15 min incubation at 30° C., MeO-succinyl-alanyl-alanyl-prolyl-valyl-p-nitroanilide substrate; read-out: HNE IC50
# Method in brief: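 Residual activity was taken as the 10 min rate of absorbance rise at 405 nm after adding 0.6 mM MeO-succinyl-AAPV-p-nitroanilide. Curve fitting of activity against concentration gave IC50.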
row,Compound,IC50 [nM]
1,"CCC[C@H]1C(=O)N(S(C)(=O)=O)[C@H]2CCN(C(=O)CCCCCCCCCN3CCC3)[C@H]12 (relative stereo) [Example 72, rel-(3R,3aR,6aS)-4-(10-Azetidin-1-yl-decanoyl)-1-methanesulfonyl-3-propyl-hexahydro-pyrrolo[3,2-b]pyrrol-2-one DL-tartrate]",37
2,"CCC[C@H]1C(=O)N(S(C)(=O)=O)[C@H]2CCN(S(=O)(=O)c3ccc(C(=O)N(C)C)cc3)[C@H]12 (relative stereo) [Example 126, rel-4-(4-Methanesulfonyl-5-oxo-6R-propyl-hexahydro-(3aS,6aR)-pyrrolo[3,2-b]pyrrole-1-sulfonyl)-N,N-dimethyl-benzamide]",10
3,"CCC[C@H]1C(=O)N(S(C)(=O)=O)[C@H]2CCN(C(=O)CCCCCCCCCN(C)C)[C@H]12 (relative stereo) [Example 67, rel-(3R,3aR,6aS)-4-(10-Dimethylamino-decanoyl)-1-methanesulfonyl-3-propyl-hexahydro-pyrrolo[3,2-b]pyrrol-2-one DL-tartrate]",43
4,"CCC[C@H]1C(=O)N(S(C)(=O)=O)[C@H]2CCN(S(=O)(=O)c3ccc(OC)cc3)[C@H]12 (relative stereo) [Example 220, rel-(3R,3aR,6aS)-1-Methanesulfonyl-4-(4-methoxy-benzenesulfonyl)-3-propyl hexahydro-pyrrolo[3,2-b]pyrrol-2-one]",12
5,"CCC[C@H]1C(=O)N(S(C)(=O)=O)[C@H]2CCN(S(=O)(=O)c3ccc(S(C)(=O)=O)cc3)[C@H]12 (relative stereo) [Example 217, rel-(3R,3aR,6aS)-1-Methanesulfonyl-4-(4-methanesulfonyl-benzenesulfonyl)-3-propyl-hexahydro-pyrrolo[3,2-b]pyrrol-2-one]",40
6,"CCC[C@H]1C(=O)N(S(C)(=O)=O)[C@H]2CCN(C(=O)CCN3CCCCCC3)[C@H]12 (relative stereo) [Example 99, hydrochloride]",79
7,"CCC[C@H]1C(=O)N(S(C)(=O)=O)[C@H]2CCN(C(=O)/C=C/c3ccc(CN4CCN(C)CC4)cc3)[C@H]12 (relative stereo) [Example 132, rel-(3R,3aR,6aS)-1-Methanesulfonyl-4-{3-(4-(4-methyl-piperazin-1-ylmethy)-phenyl-(E)-acryloyl}-3-propyl-hexahydro-pyrrolo[3,2-b]pyrrol-2-one dihydrochloride]",83
8,"CCC[C@H]1C(=O)N(S(C)(=O)=O)[C@H]2CCN(C(=O)CN(C)C)[C@H]12 (relative stereo) [Example 102, rel-(3R,3aR,6aS)-4-Dimethylaminoacetyl-1-methanesulfonyl-3-propyl-hexahydro-pyrrolo[3,2-b]pyrrol-2-one hydrochloride]",91
9,"CCC[C@H]1C(=O)N(S(C)(=O)=O)[C@H]2CCN(C(=O)CN(C)c3ccccc3)[C@H]12 (relative stereo) [Example 103, rel-(3R,3aR,6aS)-1-Methanesulfonyl-4-[(methyl-phenyl-amino)-acetyl]-3-propyl-hexahydro-pyrrolo[3,2-b]pyrrol-2-one hydrochloride]",104
10,"CCC[C@H]1C(=O)N(S(=O)(=O)CC)[C@H]2CCN(C(=O)CCN3CCCCC3)[C@H]12 (relative stereo) [Example 160, rel-(3R,3aR,6aS)-1-Ethanesulfonyl-4-(3-piperidin-1-yl-propionyl)-3-propyl-hexahydro-pyrrolo[3,2-b]pyrrol-2-one DL-tartrate]",119
11,"CCC[C@H]1C(=O)N(S(C)(=O)=O)[C@H]2CCN(C(=O)CCCCCCCCCN(CC)CC)[C@H]12 (relative stereo) [Example 65, rel-(3R,3aR,6aS)-4-(10-Diethylamino-decanoyl)-1-methanesulfonyl-3-propyl-hexahydro-pyrrolo[3,2-b]pyrrol-2-one DL-tartrate]",66
12,"CCC[C@H]1C(=O)N(S(C)(=O)=O)[C@H]2CCN(C(=O)CCNC(C)=O)[C@H]12 (relative stereo) [Example 96, rel-N-[3-(4-Methanesulfonyl-5-oxo-6R-propyl-hexahydro-(3aS,6aR)-pyrrolo[3,2-b]pyrrol-1-yl)-3-oxo-propyl]-acetamide]",134
13,"CCC[C@H]1C(=O)N(S(C)(=O)=O)[C@H]2CCN(S(=O)(=O)c3cccc(N)c3)[C@H]12 (relative stereo) [Example 235, rel-(3R,3aR,6aS)-4-(3-Amino-benzenesulfonyl)-1-methanesulfonyl-3-propyl-hexahydro-pyrrolo[3,2-b]pyrrol-2-one hydrochloride]",9
14,"CCC[C@H]1C(=O)N(S(C)(=O)=O)[C@H]2CCN(C(=O)CN3CCCCCC3)[C@H]12 (relative stereo) [Example 104, rel-(3R,3aR,6aS)-4-Azepin-1-yl-acetyl)-1-methanesulfonyl-3-propyl-hexahydro-pyrrolo[3,2-b]pyrrol-2-one hydrochloride]",574
15,"CCC[C@H]1C(=O)N(S(C)(=O)=O)[C@H]2CCN(S(=O)(=O)CCCN3CCOCC3)[C@H]12 (relative stereo) [Example 8, rel-(3R,3aR,6aS)-1-Methanesulfonyl-4-(3-morpholin-4-yl-propane-1-sulfonyl)-3-propyl-hexahydro-pyrrolo[3,2-b]pyrrol-2-one]",29
16,"CCC[C@H]1C(=O)N(S(=O)(=O)c2ccc(Cl)cc2)[C@H]2CCN(C(=O)CCCCCN3CCCCC3)[C@H]12 (relative stereo) [Example 207, rel-(3R,3aR,6aS)-1-(4-Chloro-benzenesulfonyl)-4-(6-piperidin-1-yl-hexanoyl)-3-propyl-hexahydro-pyrrolo[3,2-b]pyrrol-2-one DL-tartrate]",38
17,"CCC[C@H]1C(=O)N(S(C)(=O)=O)[C@H]2CCN(C(=O)CCCCCN(C)C)[C@H]12 (relative stereo) [Example 77, rel-(3R,3aR,6aS)-4-(6-Dimethylamino-hexanoyl)-1-methanesulfonyl-3-propyl-hexahydro-pyrrolo[3,2-b]pyrrol-2-one DL-tartrate]",134
18,"CCC[C@H]1C(=O)N(S(C)(=O)=O)[C@H]2CCN(C(=O)CCCCCN3CCN(C)CC3)[C@H]12 (relative stereo) [Example 79, rel-(3R,3aR,6aS)-1-Methanesulfonyl-4-[6-(4-methyl-piperazin-1-yl)-hexanoyl]-3-propyl-hexahydro-pyrrolo[3,2-b]pyrrol-2-one dihydrochloride]",50
19,"CCC[C@H]1C(=O)N(S(C)(=O)=O)[C@H]2CCN(C(=O)CCCN(C)c3ccccc3)[C@H]12 (relative stereo) [Example 88, rel-(3R,3aR,6aS)-1-Methanesulfonyl-4-[4-(methyl-phenyl-amino)-butyryl]-3-propyl-hexahydro-pyrrolo[3,2-b]pyrrol-2-one hydrochloride]",75
20,"CCC[C@H]1C(=O)N(S(C)(=O)=O)[C@H]2CCN(C(=O)CCCN3CCOCC3)[C@H]12 (relative stereo) [Example 47, rel-(3R,3aR,6aS)-1-Methanesulfonyl-4-(4-morpholin-4-yl-butyryl)-3-propyl-hexahydro-pyrrolo[3,2-b]pyrrol-2-one]",109
21,"CCC[C@H]1C(=O)N(S(=O)(=O)c2cccc3ccccc23)[C@H]2CCN(S(C)(=O)=O)[C@H]12 (relative stereo) [Example 31, rel-(3R,3aR,6aS)-4-Methanesulfonyl-1-(naphthalene-1-sulfonyl)-3-propyl-hexahydro-pyrrolo[3,2-b]pyrrol-2-one]",80
22,"C=CC[C@H]1C(=O)N(S(=O)(=O)c2cccc(S(=O)(=O)N(C)C)c2)[C@H]2CCN(C(=O)OCc3ccccc3)[C@H]12 (relative stereo) [Example 37, rel-(3aS,6R,6aR)-6-Allyl-4-(3-dimethylsulfamoyl-benzenesulfonyl)-5-oxo-hexahydro-pyrrolo[3,2-b]pyrrole-1-carboxylic acid benzyl ester]",138
23,"CCC[C@H]1C(=O)N(S(C)(=O)=O)[C@H]2CCN(C(=O)CCCN3CCCCC3)[C@H]12 (relative stereo) [Example 87, rel-(3R,3aR,6aS)-1-Methanesulfonyl-4-(4-piperidin-1-yl-butyryl)-3-propyl-hexahydro-pyrrolo[3,2-b]pyrrol-2-one DL-tartrate]",96
24,"C=CC[C@H]1C(=O)N(S(=O)(=O)c2cccc3cccnc23)[C@H]2CCN(C(=O)OCc3ccccc3)[C@H]12 (relative stereo) [Example 49, rel-(3aS,6R,6aR)-6-Allyl-5-oxo-4-(quinoline-8-sulfonyl)-hexahydro-pyrrolo[3,2-b]pyrrole-1-carboxylic acid benzyl ester]",412
25,"CCC[C@H]1C(=O)N(S(=O)(=O)CCC)[C@H]2CCN(C(=O)CCN3CCCCC3)[C@H]12 (relative stereo) [Example 162, rel-(3R,3aR,6aS)-4-(3-Piperidin-1-yl-propionyl)-1-(propane-1-sulfonyl)-3-propyl-hexahydro-pyrrolo[3,2-b]pyrrol-2-one DL-tartrate]",62
26,"CCC[C@H]1C(=O)N(S(=O)(=O)c2ccc([N+](=O)[O-])cc2)[C@H]2CCN(C(=O)CCCCCN3CCCCC3)[C@H]12 (relative stereo) [Example 203, rel-(3R,3aR,6aS)-1-(4-Nitro-benzenesulfonyl)-4-(6-piperidin-1-yl-hexanoyl)-3-propyl-hexahydro-pyrrolo[3,2-b]pyrrol-2-one DL-tartrate]",38
27,"CCC[C@H]1C(=O)N(S(=O)(=O)c2ccc3ccccc3c2)[C@H]2CCN(S(=O)(=O)Cc3cccc(-c4nnn[nH]4)c3)[C@H]12 (relative stereo) [Example 23, rel-(3R,3aR,6aS)-1(Naphthalene-2-sulfonyl)-3-propyl-4-[3-(1H-tetrazol-5-yl)-phenylmethanesulfonyl]-hexahydro-pyrrolo[3,2-b]pyrrole-2-one]",75
